25 molecules from patent US9987276B2 (Celgene CAR LLC, priority 2008, dated 2018) can be followed below.

BTK, sequence (Q06187 whole entry): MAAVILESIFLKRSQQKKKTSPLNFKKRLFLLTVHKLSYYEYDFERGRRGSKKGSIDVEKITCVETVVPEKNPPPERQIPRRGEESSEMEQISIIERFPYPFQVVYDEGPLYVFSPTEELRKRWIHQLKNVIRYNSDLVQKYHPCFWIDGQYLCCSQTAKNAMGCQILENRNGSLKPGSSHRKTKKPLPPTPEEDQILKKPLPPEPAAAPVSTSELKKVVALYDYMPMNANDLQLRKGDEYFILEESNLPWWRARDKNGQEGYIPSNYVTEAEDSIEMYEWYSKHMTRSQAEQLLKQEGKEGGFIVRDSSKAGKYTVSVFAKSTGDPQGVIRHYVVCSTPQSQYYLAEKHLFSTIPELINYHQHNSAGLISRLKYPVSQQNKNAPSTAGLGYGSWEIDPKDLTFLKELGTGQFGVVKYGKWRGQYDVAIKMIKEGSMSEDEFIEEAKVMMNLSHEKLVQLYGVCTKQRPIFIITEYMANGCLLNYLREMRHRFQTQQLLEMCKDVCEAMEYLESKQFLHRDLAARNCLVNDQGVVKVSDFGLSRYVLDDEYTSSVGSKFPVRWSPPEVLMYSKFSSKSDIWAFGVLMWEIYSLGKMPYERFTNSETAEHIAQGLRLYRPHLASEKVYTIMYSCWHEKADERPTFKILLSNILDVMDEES

One assay deals with BTK (Homo sapiens (Human), UniProt Q06187). Description: Omnia assay for potency assessment against BTK. The class given is biochemical. The note with it: [BTK]=5 nM, Omnia assay; read-out: BTK Inhibition (IC50). As for the experimental part: The modified BTK-optimized reagent conditions for the above protocol are:
[BTK]=5 nM, [ATP]=[…], [Y5-Sox]=[…] (ATP KMapp˜[…]).
For the molecule “4-(4-(4-(3-acrylamidophenylamino)-5-fluoropyrimidin-2-ylamino)phenoxy) pyridine [Compound I-346]”, the IC50 is less than 10 nM.
Same read-out and setting: for `COc1cccc(Nc2ncc(C(F)(F)F)c(N[C@@H]3CCC[C@H](C(=O)C=C(C)C)C3)n2)c1` (stereo in doubt) [Compound I-213, 1-(3-(2-(3-Methoxy-phenylamino)-5-trifluoromethyl-pyrimidin-4-ylamino)-cyclohexyl)-3-methyl-but-2-en-1-one] the value was greater than 10000 nM; for `C=CC(=O)Nc1cccc(Nc2ncc(C)c(Nc3cccc(Br)c3)n2)c1` [Compound I-9, N-(3-(4-(3-bromophenylamino)-5-methylpyrimidin-2-ylamino)phenyl) acrylamide], less than 10 nM; for `C=CC(=O)Nc1cccc(Nc2nc(Nc3ccc(Cl)c(OCCCS(C)(=O)=O)c3)ncc2F)c1` [Compound I-55, N-(3-(2-(4-chloro-3-(3-(methylsulfonyl)propoxy)phenylamino)-5-fluoropyrimidin-4-ylamino)phenyl)acrylamide], less than 10 nM.
On the same count and under the same terms, for `C=CC(=O)N(C)Cc1cccc(Nc2nc(Nc3cccc(OC)c3)ncc2F)c1` [Compound I-115, N-(3-(5-fluoro-2-(3-methyoxyphenylamino)pyrimidin-4-ylamino)benzyl)-N-methylacrylamide] the value was 10 to 100 nM; for `C=CC(=O)N1CCC(Nc2nc(Nc3ccccc3)ncc2F)CC1` [Compound I-229, 1-(4-(5-fluoro-2-(phenylamino)pyrimidin-4-ylamino)piperidin-1-yl)prop-2-en-1-one], 10 to 100 nM; for `C=C(C#N)C(O)c1cccc(Nc2nc(Nc3ccc(OCC(C)(C)O)nc3)ncc2F)c1` (stereo not drawn) [Compound I-312, 2-((3-(5-fluoro-2-(6-(2-hydroxy-2-methylpropoxy)pyridin-3-ylamino)pyrimidin-4-ylamino)phenyl)(hydroxy)methyl)acrylonitrile], less than 10 nM.

Another assay deals with EGFR-WT (Homo sapiens (Human), UniProt P00533). Description: Omnia assay for potency assessment against EGFR (WT).
Settings: not given
Regarding `COc1cccc(Nc2ncc(C(F)(F)F)c(N[C@@H]3CCC[C@H](C(=O)C=C(C)C)C3)n2)c1` (stereo in doubt) [Compound I-213, 1-(3-(2-(3-Methoxy-phenylamino)-5-trifluoromethyl-pyrimidin-4-ylamino)-cyclohexyl)-3-methyl-but-2-en-1-one], the IC50 lay within 100 to 1000 nM.
Same read-out and setting: in the case of `C=CC(=O)Nc1cccc(Nc2nc(Nc3cccc(N4CCN(CCO)CC4)c3)ncc2F)c1` [Compound I-83, N-(3-(2-(3-(4-(2-hydroxyethyl)piperazin-1-yl)phenylamino)-5-fluoropyrimidin-4-ylamino)phenyl)acrylamide] it was 10 to 100 nM.
`C=C(Cn1cccn1)C(=O)Nc1cccc(Nc2ncc(F)c(Nc3cccc(C)c3)n2)c1` [Compound I-98, 2-((1H-pyrazol-1-yl)methyl)-N-(3-(5-fluoro-4-(m-tolylamino)pyrimidin-2-ylamino)phenyl)acrylamide] yielded an IC50 of 100 to 1000 nM.
Same read-out and setting: for `Cc1cccc(Nc2nc(Nc3cccc(NC(=O)/C=C/CN4CCOCC4)c3)ncc2F)c1` [Compound I-102, (E)-N-(3-(5-fluoro-4-(m-tolylamino)pyrimidin-2-ylamino)phenyl)-4-morpholinobut-2-enamide] the value was 100 to 1000 nM.
Still for that read-out and setting: for `Cc1cccc(Nc2nc(Nc3cccc(NC(=O)/C=C/CN4CCC4)c3)ncc2F)c1` [Compound I-123, (E)-4-(azetidin-1-yl)-N-(3-(5-fluoro-4-(m-tolylamino)pyrimidin-2-ylamino)phenyl)but-2-enamide] the value was 10 to 100 nM.
Still for that read-out and setting: for `C=CC(=O)Nc1cccc(N(C)c2nc(Nc3ccc4c(c3)N(C)CCO4)ncc2F)c1` [Compound I-127] the value was 100 to 1000 nM.
`C=CC(=O)N1CCOc2ccc(Nc3nc(Nc4ccc(OCCO)nc4)ncc3C(C)=O)cc21` [Compound I-128, 1-(6-{5-Acetyl-2-[6-(2-hydroxy-ethoxy)-pyridin-3-ylamino]-pyrimidin-4-ylamino}-2,3-dihydro-benzo[1,4]oxazin-4-yl)-propenone] returned an IC50 of 10 to 100 nM.
On the same count and under the same terms, in the case of `C=CC(=O)Nc1cccc(Nc2nc(Nc3ccc(OCCOC)cc3)ncc2C2CC2)c1` [Compound I-139, N-(3-(5-cyclopropyl-2-(4-(2-methoxyethoxy)phenylamino)pyrimidin-4-ylamino)phenyl)acrylamide] it was 10 to 100 nM; in that of `C=CC(=O)N1CCOc2ccc(Nc3nc(Nc4ccc(N5CCCC5=O)cc4)ncc3C(C)=O)cc21` [Compound I-152, 1-{4-[5-Acetyl-4-(4-acryloyl-3,4-dihydro-2H-benzo[1,4]oxazin-6-ylamino)-pyrimidin-2-ylamino]-phenyl}-pyrrolidin-2-one], 10 to 100 nM.
`C=CC(=O)Nc1cccc(Nc2nc(Nc3ccccc3)ncc2C(=O)Nc2ccccc2)c1` [Compound I-222, 4-(3-acrylamidophenylamino)-N-phenyl-2-(phenylamino)pyrimidine-5-carboxamide] had an IC50 of 100 to 1000 nM.

The assay is the same for the next values; noted with them: read-out: EGFR (wild type inhibition); EGFR wild type.
In the case of “4-(4-(4-(3-acrylamidophenylamino)-5-fluoropyrimidin-2-ylamino)phenoxy) pyridine [Compound I-346]”, the IC50 is 100 to 1000 nM.
Still for that read-out and setting: in the case of `Cc1cccc(Nc2nc(Nc3cccc(NC(=O)/C=C/Cn4cccn4)c3)ncc2F)c1` [Compound I-100, (E)-N-(3-(5-fluoro-4-(m-tolylamino)pyrimidin-2-ylamino)phenyl)-4-(1H-pyrazol-1-yl)but-2-enamide] it was 1000 to 10000 nM; in that of `C=CC(=O)Nc1cccc(Nc2nc(Nc3ccc(OC)nc3)ncc2C(=O)NC(C)(C)C)c1` [Compound I-216, 4-(3-acrylamidophenylamino)-N-tert-butyl-2-(6-methoxypyridin-3-ylamino)pyrimidine-5-carboxamide], 1000 to 10000 nM; in that of `COc1cccc(Nc2ncc(C(F)(F)F)c(Nc3cccc(C(=O)C=C(C)C)c3)n2)c1` [Compound I-225, 1-(3-(5-trifluoromethyl-2-(3-methoxyphenylamino)pyrimidin-4-ylamino)phenyl)-3-methyl-but-2-en-1-one], 1000 to 10000 nM.
Same read-out and setting: in the case of `C=CC(=O)NCc1cccc(Nc2nc(Nc3cccc(OC)c3)ncc2C(F)(F)F)c1` [Compound I-226, N-(3-(5-trifluoromethyl-2-(3-methoxyphenylamino)pyrimidin-4-ylamino)phenyl)methylacrylamide] it was 1000 to 10000 nM.
Still for that read-out and setting: for `C=CC(=O)NCc1ccc(Nc2nc(Nc3cccc(OC)c3)ncc2C(F)(F)F)cc1` [Compound I-235, N-(4-(5-trifluoromethyl-2-(3-methoxyphenylamino)pyrimidin-4-ylamino)phenyl)methylacrylamide] the value was greater than 10000 nM; for `COCCOc1ccc(Nc2ncc(F)c(Nc3cccc(C(=O)C=C(C)C)c3)n2)cc1F` [Compound I-323, 1-(3-(5-fluoro-2-(3-fluoro-4-(2-methoxyethoxy)phenylamino)pyrimidin-4-ylamino)phenyl)-3-methylbut-2-en-1-one], greater than 10000 nM.
For `COCCOc1ccc(Nc2ncc(F)c(Nc3ccc(C(=O)C=C(C)C)cc3)n2)cc1F` [Compound I-325, 1-(4-(5-fluoro-2-(3-fluoro-4-(2-methoxyethoxy)phenylamino)pyrimidin-4-ylamino)phenyl)-3-methylbut-2-en-1-one], the IC50 is 1000 to 10000 nM.
The same measure, in the same setting: for `COCCOc1ccc(Nc2ncc(F)c(Nc3cccc(CC(=O)C=C(C)C)c3)n2)cc1F` [Compound I-330, 1-(3-(5-fluoro-2-(3-fluoro-4-(2-methoxyethoxy)phenylamino)pyrimidin-4-ylamino)phenyl)-4-methylpent-3-en-2-one] the value was greater than 10000 nM; for `COCCOc1ccc(Nc2ncc(F)c(Nc3ccc(CC(=O)C=C(C)C)cc3)n2)cc1F` [Compound I-331, 1-(4-(5-fluoro-2-(3-fluoro-4-(2-methoxyethoxy)phenylamino)pyrimidin-4-ylamino)phenyl)-4-methylpent-3-en-2-one], 1000 to 10000 nM.
